PubChem BioAssay AID248 (DTP/NCI, 2004)
Several values for one entry are separate records, joined by “and”; a condition that tells them apart may be missing. Identical values can stand only once. Inconclusive results and toxic doses are left out.

Tested on: L1210 leukemia ip in BDF1 mice, survival T/C
Assay: NCI In Vivo Anticancer Drug Screen. Data for tumor model L1210 Leukemia (intraperitoneal) in B6D2F1 (BDF1) mice
Conditions: endpoint: mean survival time, higher = longer survival
Summary of the method: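 Value reflects the ratio of survival in compound-treated mice to survival in vehicle-treated controls, with both groups carrying the same transplanted tumor.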

[1] = dose: 100.0 mg/kg/injection, schedule: Q04DX003 (ip), vehicle: Klucel (hydroxypropylcellulose) (HPC)
[2] = dose: 200.0 mg/kg/injection, schedule: Q04DX003 (ip), vehicle: Klucel (hydroxypropylcellulose) (HPC)
[3] = dose: 400.0 mg/kg/injection, schedule: Q04DX003 (ip), vehicle: Klucel (hydroxypropylcellulose) (HPC)
[4] = dose: 100.0 mg/kg/injection, schedule: Q01DX009 (ip), vehicle: Klucel (hydroxypropylcellulose) (HPC)
[5] = dose: 200.0 mg/kg/injection, schedule: Q01DX009 (ip), vehicle: Klucel (hydroxypropylcellulose) (HPC)
[6] = dose: 400.0 mg/kg/injection, schedule: Q01DX009 (ip), vehicle: Klucel (hydroxypropylcellulose) (HPC)
[7] = dose: 100.0 mg/kg/injection, schedule: Q01DX009 (ip), vehicle: saline with Tween-80
[8] = dose: 100.0 mg/kg/injection, schedule: Q04DX003 (ip), vehicle: acetone
[9] = dose: 200.0 mg/kg/injection, schedule: Q01DX009 (ip), vehicle: saline with Tween-80
[10] = dose: 200.0 mg/kg/injection, schedule: Q04DX003 (ip), vehicle: acetone
[11] = dose: 400.0 mg/kg/injection, schedule: Q01DX009 (ip), vehicle: saline with Tween-80
[12] = dose: 100.0 mg/kg/injection, schedule: Q04DX002 (ip), vehicle: Klucel (hydroxypropylcellulose) (HPC)
[13] = dose: 200.0 mg/kg/injection, schedule: Q04DX002 (ip), vehicle: Klucel (hydroxypropylcellulose) (HPC)
[14] = dose: 400.0 mg/kg/injection, schedule: Q04DX002 (ip), vehicle: Klucel (hydroxypropylcellulose) (HPC)
[15] = dose: 100.0 mg/kg/injection, schedule: Q01DX001 (ip), vehicle: Klucel (hydroxypropylcellulose) (HPC)
[16] = dose: 200.0 mg/kg/injection, schedule: Q01DX001 (ip), vehicle: Klucel (hydroxypropylcellulose) (HPC)
[17] = dose: 400.0 mg/kg/injection, schedule: Q01DX001 (ip), vehicle: Klucel (hydroxypropylcellulose) (HPC)

OCC1OC(n2cnc3c2NC=NC[C@H]3O)CC1O (stereo partly specified)
T/C (dose: 0.13 mg/kg/injection, schedule: Q01DX005 (ip), vehicle: water): 100 % of control
T/C (dose: 0.13 mg/kg/injection, schedule: Q01DX009 (ip), vehicle: water): 104 % of control
T/C (dose: 0.25 mg/kg/injection, schedule: Q01DX005 (ip), vehicle: water): 105 % of control
T/C (dose: 0.25 mg/kg/injection, schedule: Q01DX009 (ip), vehicle: water): 101 % of control
T/C (dose: 0.25 mg/kg/injection, schedule: Q04DX002 (ip), vehicle: water): 98 % of control
T/C (dose: 0.25 mg/kg/injection, schedule: Q04DX003 (ip), vehicle: water): 98 % of control
T/C (dose: 0.5 mg/kg/injection, schedule: Q04DX002 (ip), vehicle: water): 95 % of control
T/C (dose: 0.5 mg/kg/injection, schedule: Q04DX003 (ip), vehicle: water): 106 % of control

COC(=O)CCN(c1ccccc1)S(=O)(=O)c1ccc(C)cc1
T/C [1]: 91 % of control
T/C [2]: 94 % of control
T/C [3]: 93 % of control

O=C(NO)c1ccccc1O
T/C (dose: 85.0 mg/kg/injection, schedule: Q03HX032 (ip), vehicle: other): 97 % of control
T/C [4]: 104 % of control
T/C (dose: 100.0 mg/kg/injection, schedule: Q04DX002 (ip), vehicle: carboxymethylcellulose (CMC)): 98 % of control and 108 % of control
T/C (dose: 100.0 mg/kg/injection, schedule: Q04DX003 (ip), vehicle: carboxymethylcellulose (CMC)): 101 % of control and 118 % of control
T/C (dose: 130.0 mg/kg/injection, schedule: Q03HX032 (ip), vehicle: other): 102 % of control
T/C [5]: 112 % of control
T/C (dose: 200.0 mg/kg/injection, schedule: Q01DX015 (ip), vehicle: other): 105 % of control
T/C (dose: 200.0 mg/kg/injection, schedule: Q03HX032 (ip), vehicle: other): 105 % of control
T/C (dose: 200.0 mg/kg/injection, schedule: Q04DX002 (ip), vehicle: carboxymethylcellulose (CMC)): 98 % of control and 108 % of control
T/C (dose: 200.0 mg/kg/injection, schedule: Q04DX003 (ip), vehicle: carboxymethylcellulose (CMC)): 99 % of control and 103 % of control
T/C (dose: 266.0 mg/kg/injection, schedule: Q01DX009 (ip), vehicle: saline): 97 % of control
T/C (dose: 300.0 mg/kg/injection, schedule: Q01DX015 (ip), vehicle: other): 93 % of control
T/C (dose: 300.0 mg/kg/injection, schedule: Q03HX032 (ip), vehicle: other): 121 % of control
T/C [6]: 105 % of control
T/C (dose: 400.0 mg/kg/injection, schedule: Q01DX009 (ip), vehicle: saline): 97 % of control
T/C (dose: 400.0 mg/kg/injection, schedule: Q04DX002 (ip), vehicle: carboxymethylcellulose (CMC)): 96 % of control and 104 % of control
T/C (dose: 400.0 mg/kg/injection, schedule: Q04DX003 (ip), vehicle: carboxymethylcellulose (CMC)): 105 % of control
T/C (dose: 450.0 mg/kg/injection, schedule: Q01DX015 (ip), vehicle: other): 108 % of control
T/C (dose: 450.0 mg/kg/injection, schedule: Q03HX032 (ip), vehicle: other): 208 % of control
T/C (dose: 600.0 mg/kg/injection, schedule: Q01DX009 (ip), vehicle: saline): 104 % of control
T/C (dose: 670.0 mg/kg/injection, schedule: Q01DX015 (ip), vehicle: other): 86 % of control
T/C (dose: 900.0 mg/kg/injection, schedule: Q01DX009 (ip), vehicle: saline): 104 % of control

CC(Br)C1=CC(c2ccccc2)(c2ccccc2)c2ccccc21 (stereo unspecified)
T/C (dose: 100.0 mg/kg/injection, schedule: Q04DX003 (ip), vehicle: saline with Tween-80): 90 % of control
T/C (dose: 400.0 mg/kg/injection, schedule: Q04DX003 (ip), vehicle: saline with Tween-80): 90 % of control

Cc1ccc(S(=O)(=O)NC(c2ccccc2)(c2ccccc2)c2ccccc2)cc1
T/C [7]: 96 % of control
T/C [8]: 96 % of control
T/C [9]: 88 % of control
T/C [10]: 95 % of control
T/C [11]: 93 % of control
T/C (dose: 400.0 mg/kg/injection, schedule: Q04DX003 (ip), vehicle: acetone): 96 % of control

O=c1ccccc(Br)c1O
T/C [8]: 100 % of control
T/C [10]: 98 % of control

CN(Cc1ccccc1)C(=O)/C=C/c1ccccc1
T/C [4]: 93 % of control
T/C [1]: 94 % of control
T/C [5]: 96 % of control
T/C [2]: 96 % of control
T/C [3]: 89 % of control

O=C1NC2(CCCC2)C(=O)N2CCCC12 (stereo unspecified)
T/C [3]: 97 % of control

O=C(O)c1ccc2c(ccc3ccc4ccccc4c32)c1
T/C (dose: 12.5 mg/kg/injection, schedule: Q04DX003 (ip), vehicle: Klucel (hydroxypropylcellulose) (HPC)): 100 % of control
T/C (dose: 25.0 mg/kg/injection, schedule: Q04DX003 (ip), vehicle: Klucel (hydroxypropylcellulose) (HPC)): 89 % of control
T/C (dose: 50.0 mg/kg/injection, schedule: Q04DX003 (ip), vehicle: Klucel (hydroxypropylcellulose) (HPC)): 96 % of control
T/C [1]: 97 % of control
T/C [2]: 106 % of control

O=C(O)c1cc(Cl)cc(I)c1Br
T/C (dose: 75.0 mg/kg/injection, schedule: Q04DX002 (ip), vehicle: Klucel (hydroxypropylcellulose) (HPC)): 100 % of control
T/C [12]: 94 % of control
T/C (dose: 150.0 mg/kg/injection, schedule: Q04DX002 (ip), vehicle: Klucel (hydroxypropylcellulose) (HPC)): 96 % of control
T/C [13]: 105 % of control
T/C (dose: 300.0 mg/kg/injection, schedule: Q04DX002 (ip), vehicle: Klucel (hydroxypropylcellulose) (HPC)): 100 % of control
T/C [14]: 105 % of control

CSc1ccc(OC(=O)Nc2ccc(Cl)c(Cl)c2)cc1C
T/C [4]: 106 % of control
T/C [1]: 88 % of control
T/C [5]: 92 % of control
T/C [2]: 93 % of control
T/C [6]: 92 % of control
T/C [3]: 88 % of control

CCCCN(CCCC)CC(O)c1ccccc1 (stereo unspecified)
T/C (dose: 25.0 mg/kg/injection, schedule: Q01DX005 (ip), vehicle: saline): 112 % of control
T/C (dose: 25.0 mg/kg/injection, schedule: Q01DX009 (ip), vehicle: saline): 95 % of control
T/C (dose: 25.0 mg/kg/injection, schedule: Q04DX002 (ip), vehicle: saline with Tween-80): 102 % of control
T/C (dose: 50.0 mg/kg/injection, schedule: Q01DX005 (ip), vehicle: saline): 108 % of control
T/C (dose: 50.0 mg/kg/injection, schedule: Q01DX009 (ip), vehicle: saline): 107 % of control
T/C (dose: 50.0 mg/kg/injection, schedule: Q04DX002 (ip), vehicle: saline with Tween-80): 106 % of control
T/C (dose: 100.0 mg/kg/injection, schedule: Q01DX005 (ip), vehicle: saline): 101 % of control
T/C (dose: 100.0 mg/kg/injection, schedule: Q04DX002 (ip), vehicle: saline with Tween-80): 93 % of control

COc1ccc2[nH]c3c(C)c4cc[n+](C)cc4c(C)c3c2c1
T/C (dose: 6.25 mg/kg/injection, schedule: Q04DX003 (ip), vehicle: saline sonified): 105 % of control
T/C (dose: 10.0 mg/kg/injection, schedule: Q04DX003 (ip), vehicle: saline): 115 % of control
T/C (dose: 12.5 mg/kg/injection, schedule: Q04DX003 (ip), vehicle: saline sonified): 122 % of control
T/C (dose: 20.0 mg/kg/injection, schedule: Q04DX003 (ip), vehicle: saline): 88 % of control

CC(=O)n1c(O)c(N=Nc2ccc([N+](=O)[O-])cc2[N+](=O)[O-])c2cc(Br)ccc21
T/C [12]: 92 % of control
T/C [13]: 92 % of control
T/C [14]: 92 % of control

O=C(Nc1ncccc1[N+](=O)[O-])C(Cl)(Cl)Cl
T/C [15]: 101 % of control
T/C [4]: 115 % of control
T/C [12]: 100 % of control and 88 % of control
T/C [1]: 95 % of control
T/C [16]: 100 % of control
T/C [5]: 108 % of control
T/C [13]: 103 % of control and 91 % of control
T/C [2]: 106 % of control
T/C [17]: 101 % of control
T/C [14]: 100 % of control and 103 % of control
T/C [3]: 95 % of control

OCC(Oc1ccccc1)C(O)C(O)C(CO)Oc1ccccc1 (stereo unspecified)
T/C [4]: 103 % of control
T/C [5]: 103 % of control
T/C [6]: 95 % of control

CCCCCCCN(CCCCCCC)CC(O)c1cc(-c2ccc(Cl)cc2)nc2c(C(F)(F)F)cccc12 (stereo unspecified)
T/C [15]: 104 % of control
T/C [7]: 102 % of control
T/C [16]: 96 % of control
T/C [9]: 100 % of control
T/C [17]: 100 % of control
T/C [11]: 100 % of control
